In patent US20040018259A1, “Use of at least one extract of a plant of the genus lannea in a cosmetic or dermopharmaceutical composition” (priority 1999, published 2004):
Blank lines part the entries; values can stand above or below the compound they belong to.

Columns and labels:
[1] = molecular target: T1, elastase of the abdominal salivary gland (serine protease) (Sus scrofa, UniProt P00772); assay: In tubo antielastase test, elastin connected with Congo red; format: biochemical
Method: (§1) The in tubo tests are carried out with an elastase of the abdominal salivary gland (serine protease) using two types of substrate: a synthetic color-forming (chromogenic) substrate and a natural substrate consisting of elastin connected with Congo red.
(§2) Incubation lasts 30 minutes at room temperature and coloration is measured at 410 nm and 520 nm.
(§3) The inhibition test standard tested for comparison is 1 antitrypsin.

[2] = molecular target: T1, elastase of the abdominal salivary gland (serine protease); assay: In tubo antielastase test, synthetic chromogenic substrate; format: biochemical
Method: as §1, §2, §3

[3] = test system: singlet oxygen on type I collagen; assay: Anti-singlet oxygen effect on type I collagen (viscosity, riboflavin + UV-A)
From the text: Collagen is a dermal glycoprotein which is very sensitive to the activity of the reactive form of oxygen (or FRO). It was shown that singlet oxygen (O2^1) produces troublesome crosslinkings among the proteins.
The principle of this test is based on measurement of the viscosity of an aqueous solution of type I collagen in the presence of a photochemical O2^1-evolving system.
O2^1, which is produced by riboflavin in the presence of UV-A, causes the collagen to gel in the presence of glucose which is reflected in an increase in viscosity. This effect is inhibited by the molecules which expose O2^1, such as thiourea or aminoguanidine for example.
Viscosity is evaluated by measurement of the throughflow time through the capillary of a “Cannon Fenske” viscosimeter.

[4] = test system: B16 melanocytes; assay: In vitro melanogenesis inhibition test on B16 melanocytes; format: cell-based; conditions: 0.3% dose
Method: In Vitro Melanogenesis Inhibition Test on B16 Melanocytes inoculation of the melanocytes into a growth substrate, incubation for three days at 37° C., CO2=5%, introduction of the Lannea coromandelica extracts into a medium which activates melanogenesis, […]
spectrophotometric dosing of the proteins (co-called Bradford method) and the melanin (DO at 475 nm) into the homogenized melanocytes, calculation of an activity index which corresponds to the ratio (protein level/melanin level) for an optimal dose of extract.
It follows that the higher the index (>1), the greater the ability to inhibit melanogensis.

[5] = Anti-anion superoxide test (hypoxanthine/xanthine oxidase) with luminol + microperoxidase; format: biochemical; conditions: for percentage inhibition, test with luminol + microperoxidase: average of 2 tests
From the text: (§4) *Anti-Anion Superoxide Effect (O2.^−) O2.^− is produced during the oxidizing stress through the introduction of an enzyme, xanthine oxidase (XOD), which degrades the excess hypoxanthine (HX) during an interruption in or disruption of the energy metabolism in living tissue. O2.^− is toxic, particularly because of its ability to form hydrogen peroxide (H2O2)—which in turn forms a source of HO^• through the Fenton reaction—either spontaneously or in the presence of Superoxid-Dismutase (SOD). The biochemical tests are carried out with HX in the presence of XOD and the O2.^− are exposed by luminol or a mixture of luminol and peroxidase, which exposes O2.^− and H2O2, or by a tetrazolium salt (NBT) which forms a red compound evaluated at 540 nm.

[6] = Anti-anion superoxide test (hypoxanthine/xanthine oxidase) with luminol; format: biochemical; conditions: for percentage inhibition, test with luminol: average of 2 tests
From the text: as §4

[7] = Anti-anion superoxide test (hypoxanthine/xanthine oxidase) with NBT; format: biochemical; conditions: for percentage inhibition, test with NBT: average of 2 tests
From the text: as §4

[8] = Anti-DPPH° test (anti-radical effect); conditions: for level of leuco compound formed (in % in relation to the control): average of 2 tests
From the text: a) DPPH° Test DPPH (diphenyl picryl hydrazyl) is a stable, free, violet-colored radical which is modified in its leuco compound by the substances that trap the free radicals (=scavenger or bait effect). The result is expressed in leuco compound levels which are formed in the presence of the active agent (in % in relation to the control with no active principle).

[9] = Anti-HO° test with deoxyribose (Fenton reaction) with EDTA; conditions: for percentage inhibition of the hydroxylation rate: average of 2 tests
Method: (§5) Anti-HO°-Test with Deoxyribose (Fenton Reaction) These tests evaluate the ability of an active substance to eliminate (“bait”) HO° produced by the Fenton reaction (H2O2 in the presence of iron). HO° can be exposed by deoxyribose. Deoxyribose is an essential compound of ADN which is oxidized and then fragmented by HO°. The oxidation product of deoxyribose is exposed by condensation with thiobarbituric acid (measurement of optical density at 532 nm). This test is carried out with and without EDTA in order to determine the ability of the extract to form active complex compounds with iron (“[…] effect”).

[10] = Anti-HO° test with deoxyribose (Fenton reaction) without EDTA; conditions: for percentage inhibition of the hydroxylation rate: average of 2 tests
Method: as §5

[11] = test system: tyrosinase; assay: In tubo tyrosinase inhibition test (L-DOPA, dopachromium DO at 475 nm); format: biochemical; conditions: extract concentration producing 50% inhibition of the enzyme activity
From the text: In Tubo Tyrosinase Inhibition Test mixing of the L-DOPA with tyrosinase and the Lannea coromandelica extracts to be tested, recording of the DO at 475 nm of the dopachromium, calculation of the kinetics, then the CI50 (extract concentration which produces a 50% inhibition of the enzyme activity).

[12] = test system: clostridium hystoliticum collagenase; assay: In tubo anticollagenase test (FALGPA substrate); format: biochemical
Method: b) In Tubo Anticollagenase Test
The tests are carried out with a clostridium hystoliticum collagenase and a synthetic chromogenic substrate: FALGPA. Incubation lasts 3O minutes at room temperature and optical density is measured at 324 nm. The inhibition test standard tested for comparison is cysteine.
The results are set out in Table X below which emphasizes the anticollagenase activity of the Lannea coromandelica extracts (results in percentage inhibition).

[13] = test system: human fibroblasts; assay: Anti-UVA cytophotoprotection test on human fibroblasts; format: cell-based; conditions: UV-A 15 J/cm^2
From the text: d) Anti-UVA-Cytophotoprotection Test on Human Fibroblasts
This in vitro test evaluates the ability of Lannea coromandelica extracts according to the invention to afford human fibroblasts cytophotoprotection against UV-A.
The UV-As are selected as a study model because they penetrate into the inner skin and introduce an oxidizing stress into the skin which is reflected in particular in a lipoperoxidation of the cytoplasmic membrane. The lipoperoxides formed split up into malonaldialdehydes (MDAs) which are responsible for the crosslinking of numerous biological molecules, such as proteins for example (enzyme inhibition), and nuclein bases (mutagenesis).
Fibroblasts are inoculated into a nutrient medium defined with calf foetus serum. The Lannea coromandelica extract was added 2 to 3 days after inoculation. After incubation for 2 to 3 days at 37° C./CO2=5%, the nutrient medium is replaced by a salt solution and the fibroblasts are exposed to a dose of UV-A (15 J/cm^2).
After the exposure, the MDA level in the salt solution floating on the surface is determined and the protein level in the fibroblasts is measured. The MDA level is determined by reaction to thiobarbituric acid while the protein levels are determined by the Bradford method.

T1 sequence (P00772 27-266): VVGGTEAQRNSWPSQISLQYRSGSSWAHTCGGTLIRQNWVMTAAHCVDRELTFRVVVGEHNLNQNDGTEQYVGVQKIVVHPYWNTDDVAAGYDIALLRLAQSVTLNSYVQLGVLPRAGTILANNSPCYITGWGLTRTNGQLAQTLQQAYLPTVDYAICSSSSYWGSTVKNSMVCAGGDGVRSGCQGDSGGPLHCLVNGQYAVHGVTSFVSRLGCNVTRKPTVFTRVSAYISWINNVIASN

Compound: 1α antitrypsin: inhibition test standard tested for comparison in the antielastase test
Cl50 antielastase, elastin connected with Congo red [1]: NB: Cl50 in % by wt./vol. for 1α antitrypsin = 0.04%
Cl50 antielastase, synthetic substrate [2]: NB: Cl50 in % by wt./vol. for 1α antitrypsin = 0.04%

Compound: N=C(N)NN [Aminoguanidine, aminoguanidine]
Cl50 photoprotection of type I collagen [3]: 0.004 % (wt./vol.)
photoprotective effect on type I collagen, percentage inhibition ([3]; dose 0.005% (wt./vol.)): 57%
photoprotective effect on type I collagen, percentage inhibition ([3]; dose 0.015% (wt./vol.)): 75%

Compound: OC[C@H]1O[C@@H](Oc2ccc(O)cc2)[C@H](O)[C@@H](O)[C@@H]1O [Arbutin]
I = activity index on B16 melanocytes (protein level/melanin level) [4]: I = 3.14 (for the 0.3% dose)

Cl50 test with luminol + microperoxidase [5]: 0.0058 % (wt./vol.)
percentage inhibition, test with luminol + microperoxidase ([5]; dose 0.001% (wt./vol.)): 0%
percentage inhibition, test with luminol + microperoxidase ([5]; dose 0.01% (wt./vol.)): 94%
Cl50 test with luminol [6]: 0.0006 % (wt./vol.)
percentage inhibition, test with luminol ([6]; dose 0.0001% (wt./vol.)): 5%
percentage inhibition, test with luminol ([6]; dose 0.001% (wt./vol.)): 92%
percentage inhibition, test with luminol ([6]; dose 0.01% (wt./vol.)): 100%
Cl50 test with NBT [7]: 0.5909 % (wt./vol.)
percentage inhibition, test with NBT ([7]; dose 0.01% (wt./vol.)): 15%
percentage inhibition, test with NBT ([7]; dose 0.1% (wt./vol.)): 32%
percentage inhibition, test with NBT ([7]; dose I % (wt./vol.)): 65%
Compound: O=C1O[C@H]([C@@H](O)CO)C(O)=C1O [Ascorbic acid]
Cl50 anti-DPPH° test [8]: 0.0013 % (wt./vol.)
level of leuco compound formed (in % in relation to the control) ([8]; dose 0.001% (wt./vol.)): 49%
level of leuco compound formed (in % in relation to the control) ([8]; dose 0.01% (wt./vol.)): 75%
Cl50 Fenton reaction with EDTA [9]: 0.26 % (wt./vol.)
percentage inhibition of the hydroxylation rate ([9]; dose 0.1% (wt./vol.)): 45%
percentage inhibition of the hydroxylation rate ([9]; dose 1% (wt./vol.)): 73%
Cl50 Fenton reaction without EDTA [10]: 0.9 % (wt./vol.)
percentage inhibition of the hydroxylation rate ([10]; dose 0.01% (wt./vol.)): 5%
percentage inhibition of the hydroxylation rate ([10]; dose 0.03% (wt./vol.)): 75%
percentage inhibition of the hydroxylation rate ([10]; dose 0.1% (wt./vol.)): 2%
percentage inhibition of the hydroxylation rate ([10]; dose 1% (wt./vol.)): 56%

Cl50 in tubo tyrosinase inhibition [11]: Cl50 = 0.025% by wt./vol.
Compound: Oc1ccc(O)cc1 [Hydroquinone]

Compound: N[C@@H](CS)C(=O)O [cysteine]
Cl50 anticollagenase [12]: NB: Cl50 in % by wt./vol. of cysteine = 2.4%

Compound: Vitamin E
MDA level in % in relation to the irradiated control ([13]; 0.0003%): 21%
Proteins in % in relation to the non-irradiated control ([13]; 0.0003%): 97%
MDA level in % in relation to the irradiated control ([13]; 0.001%): 8%
Proteins in % in relation to the non-irradiated control ([13]; 0.001%): 98%
